Assay results reported in ChEMBL document CHEMBL4145553, “Design, synthesis, and biological evaluation of novel amide and hydrazide based thioether analogs targeting Histone deacteylase (HDAC) enzymes” (Eur J Med Chem, 2018).

Experiments:
Assay type in all cases: functional
SNB-19 = test: Growth inhibition of human SNB19 cells assessed as cell growth at 10^-5 M incubated for 48 hrs by sulforhodamine B assay relative to control; details: SNB-19, 48 h, read-out: Activity
SF-295 = test: Growth inhibition of human SF295 cells incubated for 48 hrs by sulforhodamine B assay; details: SF-295, 48 h
EKVX = test: Growth inhibition of human EKVX cells assessed as cell growth at 10^-7 M incubated for 48 hrs by sulforhodamine B assay relative to control; details: read-out: Activity
SK-MEL-5 [1] = test: Growth inhibition of human SK-MEL-5 cells assessed as cell growth at 10^-8 M incubated for 48 hrs by sulforhodamine B assay relative to control; details: SK-MEL-5, 48 h, read-out: Activity
SK-MEL-5 [2] = test: Growth inhibition of human SK-MEL-5 cells incubated for 48 hrs by sulforhodamine B assay; details: SK-MEL-5, 48 h
COLO 205 [3] = test: Growth inhibition of human COLO205 cells incubated for 48 hrs by sulforhodamine B assay; details: COLO 205, 48 h
RXF 393 = test: Growth inhibition of human RXF393 cells assessed as cell growth at 10^-8 M incubated for 48 hrs by sulforhodamine B assay relative to control; details: RXF 393, 48 h, read-out: Activity
M14 = test: Growth inhibition of human M14 cells assessed as cell growth at 10^-6 M incubated for 48 hrs by sulforhodamine B assay relative to control; details: M14, 48 h, read-out: Activity
HL-60(TB) = test: Growth inhibition of human HL-60(TB) cells incubated for 48 hrs by sulforhodamine B assay; details: HL-60, 48 h
SK-MEL-2 = test: Growth inhibition of human SK-MEL-2 cells assessed as cell growth at 10^-8 M incubated for 48 hrs by sulforhodamine B assay relative to control; details: SK-MEL-2, 48 h, read-out: Activity
BT-549 [4] = test: Growth inhibition of human BT549 cells assessed as cell growth at 10^-6 M incubated for 48 hrs by sulforhodamine B assay relative to control; details: BT-549, 48 h, read-out: Activity
BT-549 [5] = test: Growth inhibition of human BT549 cells assessed as cell growth at 10^-5 M incubated for 48 hrs by sulforhodamine B assay relative to control; details: BT-549, 48 h, read-out: Activity
SN12C = test: Growth inhibition of human SN12C cells assessed as cell growth at 10^-4 M incubated for 48 hrs by sulforhodamine B assay relative to control; details: read-out: Activity
OVCAR-3 = test: Growth inhibition of human OVCAR3 cells assessed as cell growth at 10^-8 M incubated for 48 hrs by sulforhodamine B assay relative to control; details: OVCAR-3, 48 h, read-out: Activity
NCI/ADR-RES [6] = test: Growth inhibition of human NCI/ADR-RES cells assessed as cell growth at 10^-4 M incubated for 48 hrs by sulforhodamine B assay relative to control; details: read-out: Activity
NCI-H522 = test: Growth inhibition of human NCI-H522 cells assessed as cell growth at 10^-7 M incubated for 48 hrs by sulforhodamine B assay relative to control; details: NCI-H522, 48 h, read-out: Activity
SK-OV-3 = test: Growth inhibition of human SKOV3 cells assessed as cell growth at 10^-8 M incubated for 48 hrs by sulforhodamine B assay relative to control; details: SK-OV-3, 48 h, read-out: Activity
MOLT-4 = test: Growth inhibition of human MOLT4 cells assessed as cell growth at 10^-6 M incubated for 48 hrs by sulforhodamine B assay relative to control; details: MOLT-4, 48 h, read-out: Activity
COLO 205 [7] = test: Growth inhibition of human COLO205 cells assessed as cell growth at 10^-7 M incubated for 48 hrs by sulforhodamine B assay relative to control; details: COLO 205, 48 h, read-out: Activity
NCI-H23 = test: Growth inhibition of human NCI-H23 cells assessed as cell growth at 10^-8 M incubated for 48 hrs by sulforhodamine B assay relative to control; details: NCI-H23, 48 h, read-out: Activity
DU-145 = test: Growth inhibition of human DU145 cells assessed as cell growth at 10^-5 M incubated for 48 hrs by sulforhodamine B assay relative to control; details: DU-145, 48 h, read-out: Activity
NCI-H460 = test: Growth inhibition of human NCI-H460 cells assessed as cell growth at 10^-4 M incubated for 48 hrs by sulforhodamine B assay relative to control; details: NCI-H460, 48 h, read-out: Activity
Malme-3M = test: Growth inhibition of human MALME-3M cells assessed as cell growth at 10^-6 M incubated for 48 hrs by sulforhodamine B assay relative to control; details: read-out: Activity
IGROV-1 = test: Growth inhibition of human IGROV1 cells assessed as cell growth at 10^-4 M incubated for 48 hrs by sulforhodamine B assay relative to control; details: IGROV-1, 48 h, read-out: Activity
HCT-15 = test: Growth inhibition of human HCT15 cells assessed as cell growth at 10^-8 M incubated for 48 hrs by sulforhodamine B assay relative to control; details: HCT-15, 48 h, read-out: Activity
OVCAR-8 = test: Growth inhibition of human OVCAR8 cells assessed as cell growth at 10^-5 M incubated for 48 hrs by sulforhodamine B assay relative to control; details: OVCAR-8, 48 h, read-out: Activity
NCI/ADR-RES [8] = test: Growth inhibition of human NCI/ADR-RES cells assessed as cell growth at 10^-8 M incubated for 48 hrs by sulforhodamine B assay relative to control; details: read-out: Activity
K562 = test: Growth inhibition of human K562 cells assessed as cell growth at 10^-8 M incubated for 48 hrs by sulforhodamine B assay relative to control; details: K562, 48 h, read-out: Activity
TK-10 = test: Growth inhibition of human TK10 cells assessed as cell growth at 10^-4 M incubated for 48 hrs by sulforhodamine B assay relative to control; details: TK-10, 48 h, read-out: Activity
OVCAR-5 = test: Growth inhibition of human OVCAR5 cells incubated for 48 hrs by sulforhodamine B assay; details: OVCAR-5, 48 h
[9] = read-out: LC50 (the source's name)
[10] = read-out: pLC50 (the source's name) (converted)

CCS/C(Nc1ccccc1)=C(\C#N)C(=O)Nc1ccc(OC)cc1
growth at 10 µM (SNB-19): 22% | GI50 (SF-295; read-out: GI50): 3.06 µM | CC50 (SF-295; [9]): > 100 µM | TGI (SF-295; read-out: TGI): > 100 µM | GI50 (SF-295; read-out: pGI50 (converted)): 3.09 µM | CC50 (SF-295; [10]): > 100 µM | TGI (SF-295; read-out: pTGI): > 100 µM | growth at 0.1 µM (EKVX): 81% | growth at 0.01 µM (SK-MEL-5 [1]): 98% | GI50 (SK-MEL-5 [2]; read-out: GI50): 2.2 µM | CC50 (SK-MEL-5 [2]; [9]): 68.2 µM | TGI (SK-MEL-5 [2]; read-out: TGI): 8.19 µM | GI50 (SK-MEL-5 [2]; read-out: pGI50 (converted)): 2.19 µM | CC50 (SK-MEL-5 [2]; [10]): 67.6 µM | TGI (SK-MEL-5 [2]; read-out: pTGI (converted)): 8.13 µM | GI50 (COLO 205 [3]; read-out: GI50): 3.06 µM | CC50 (COLO 205 [3]; [9]): > 100 µM | TGI (COLO 205 [3]; read-out: TGI): 11.2 µM | GI50 (COLO 205 [3]; read-out: pGI50 (converted)): 3.09 µM | CC50 (COLO 205 [3]; [10]): > 100 µM | TGI (COLO 205 [3]; read-out: pTGI (converted)): 11.2 µM | growth at 0.01 µM (RXF 393): 106% | growth at 1 µM (M14): 72% | GI50 (HL-60(TB); read-out: GI50): 2.87 µM | CC50 (HL-60(TB); [9]): > 100 µM | TGI (HL-60(TB); read-out: TGI): > 100 µM | GI50 (HL-60(TB); read-out: pGI50 (converted)): 2.88 µM | CC50 (HL-60(TB); [10]): > 100 µM | TGI (HL-60(TB); read-out: pTGI): > 100 µM | growth at 0.01 µM (SK-MEL-2): 106% | growth at 1 µM (BT-549 [4]): 74% | growth at 10 µM (BT-549 [5]): 21% | growth at 100 µM (SN12C): 16% | growth at 0.01 µM (OVCAR-3): 97% | growth at 100 µM (NCI/ADR-RES [6]): 10% | growth at 0.1 µM (NCI-H522): 94% | growth at 0.01 µM (SK-OV-3): 103% | growth at 1 µM (MOLT-4): 71% | growth at 0.1 µM (COLO 205 [7]): 97% | growth at 0.01 µM (NCI-H23): 97% | growth at 10 µM (DU-145): 13% | growth at 100 µM (NCI-H460): -9% | growth at 1 µM (Malme-3M): 79% | growth at 100 µM (IGROV-1): 28% | growth at 0.01 µM (HCT-15): 98% | growth at 10 µM (OVCAR-8): 23% | growth at 0.01 µM (NCI/ADR-RES [8]): 100% | growth at 0.01 µM (K562): 106% | growth at 100 µM (TK-10): 24% | GI50 (OVCAR-5; read-out: GI50): 5.52 µM | CC50 (OVCAR-5; [9]): > 100 µM | TGI (OVCAR-5; read-out: TGI): > 100 µM | GI50 (OVCAR-5; read-out: pGI50 (converted)): 5.5 µM | CC50 (OVCAR-5; [10]): > 100 µM | TGI (OVCAR-5; read-out: pTGI): > 100 µM

CCS/C(Nc1ccccc1)=C(\C#N)C(=O)N/N=C\c1ccc(Cl)cc1Cl
growth at 10 µM (SNB-19): 28% | GI50 (SF-295; read-out: GI50): 2.89 µM | CC50 (SF-295; [9]): > 100 µM | TGI (SF-295; read-out: TGI): > 100 µM | GI50 (SF-295; read-out: pGI50 (converted)): 2.88 µM | CC50 (SF-295; [10]): > 100 µM | TGI (SF-295; read-out: pTGI): > 100 µM | growth at 0.1 µM (EKVX): 88% | growth at 0.01 µM (SK-MEL-5 [1]): 101% | GI50 (SK-MEL-5 [2]; read-out: GI50): 2.28 µM | CC50 (SK-MEL-5 [2]; [9]): > 100 µM | TGI (SK-MEL-5 [2]; read-out: TGI): 8.54 µM | GI50 (SK-MEL-5 [2]; read-out: pGI50 (converted)): 2.29 µM | CC50 (SK-MEL-5 [2]; [10]): > 100 µM | TGI (SK-MEL-5 [2]; read-out: pTGI (converted)): 8.51 µM | GI50 (COLO 205 [3]; read-out: GI50): 3.09 µM | CC50 (COLO 205 [3]; [9]): > 100 µM | GI50 (COLO 205 [3]; read-out: pGI50 (converted)): 3.09 µM | CC50 (COLO 205 [3]; [10]): > 100 µM | growth at 0.01 µM (RXF 393): 93% | growth at 1 µM (M14): 72% | GI50 (HL-60(TB); read-out: GI50): 3.2 µM | CC50 (HL-60(TB); [9]): > 100 µM | TGI (HL-60(TB); read-out: TGI): > 100 µM | GI50 (HL-60(TB); read-out: pGI50 (converted)): 3.24 µM | CC50 (HL-60(TB); [10]): > 100 µM | TGI (HL-60(TB); read-out: pTGI): > 100 µM | growth at 0.01 µM (SK-MEL-2): 106% | growth at 1 µM (BT-549 [4]): 76% | growth at 10 µM (BT-549 [5]): 18% | growth at 100 µM (SN12C): 28% | growth at 0.01 µM (OVCAR-3): 102% | growth at 100 µM (NCI/ADR-RES [6]): 11% | growth at 0.1 µM (NCI-H522): 82% | growth at 0.01 µM (SK-OV-3): 99% | growth at 1 µM (MOLT-4): 84% | growth at 0.1 µM (COLO 205 [7]): 97% | growth at 0.01 µM (NCI-H23): 105% | growth at 10 µM (DU-145): 12% | growth at 100 µM (NCI-H460): 6% | growth at 1 µM (Malme-3M): 79% | growth at 100 µM (IGROV-1): 30% | growth at 0.01 µM (HCT-15): 99% | growth at 10 µM (OVCAR-8): 27% | growth at 0.01 µM (NCI/ADR-RES [8]): 98% | growth at 0.01 µM (K562): 106% | growth at 100 µM (TK-10): 42% | GI50 (OVCAR-5; read-out: GI50): 8.25 µM | CC50 (OVCAR-5; [9]): > 100 µM | TGI (OVCAR-5; read-out: TGI): > 100 µM | GI50 (OVCAR-5; read-out: pGI50 (converted)): 8.32 µM | CC50 (OVCAR-5; [10]): > 100 µM | TGI (OVCAR-5; read-out: pTGI): > 100 µM
